Test results from ChEMBL document CHEMBL4715829, “Heterodimeric Rifampicin-Tobramycin conjugates break intrinsic resistance of Pseudomonas aeruginosa to doxycycline and chloramphenicol in vitro and in a Galleria mellonella in vivo model” (Eur J Med Chem, 2019).

How the values were obtained:
Pseudomonas aeruginosa [1] = experiment: Antibacterial activity against Pseudomonas aeruginosa 262-101856 assessed as potentiation of doxycycline-induced antibacterial activity by measuring doxycycline MIC at 9.8 uM incubated for 18 hrs in presence of doxycycline by broth microdilution assay (reference value: 1024 ug/ml); format: functional
Pseudomonas aeruginosa [2] = experiment: Antibacterial activity against Pseudomonas aeruginosa 262-101856 assessed as potentiation of chloramphenicol-induced antibacterial activity by measuring chloramphenicol MIC at 9.8 uM incubated for 18 hrs in presence of chloramphenicol by broth microdilution assay (reference value: 2048 ug/ml); format: functional
Pseudomonas aeruginosa [3] = experiment: Antibacterial activity against Pseudomonas aeruginosa 259-96918 assessed as potentiation of chloramphenicol-induced antibacterial activity by measuring chloramphenicol MIC at 9.8 uM incubated for 18 hrs in presence of chloramphenicol by broth microdilution assay (reference value: 1024 ug/ml); format: functional
Pseudomonas aeruginosa [4] = experiment: Antibacterial activity against Pseudomonas aeruginosa 114228 assessed as fractional inhibitory concentration incubated for 18 hrs in presence of rifampicin by broth microdilution assay; format: functional
Pseudomonas aeruginosa [5] = experiment: Antibacterial activity against Pseudomonas aeruginosa 100036 assessed as fractional inhibitory concentration index incubated for 18 hrs in presence of rifampicin by broth microdilution assay; format: functional
Pseudomonas aeruginosa [6] = experiment: Antibacterial activity against Pseudomonas aeruginosa 101885 assessed as fractional inhibitory concentration index incubated for 18 hrs in presence of rifampicin by broth microdilution assay; format: functional
Pseudomonas aeruginosa [7] = experiment: Antibacterial activity against Pseudomonas aeruginosa 262-101856 assessed as fractional inhibitory concentration index incubated for 18 hrs in presence of minocycline by broth microdilution assay; format: functional
Pseudomonas aeruginosa [8] = experiment: Antibacterial activity against Pseudomonas aeruginosa 264-101354 assessed as fractional inhibitory concentration index incubated for 18 hrs in presence of tigecycline by broth microdilution assay; format: functional
Pseudomonas aeruginosa [9] = experiment: Antibacterial activity against Pseudomonas aeruginosa 264-101354 assessed as fractional inhibitory concentration index incubated for 18 hrs in presence of minocycline by broth microdilution assay; format: functional
Pseudomonas aeruginosa [10] = experiment: Antibacterial activity against Pseudomonas aeruginosa 264-101354 assessed as fractional inhibitory concentration index incubated for 18 hrs in presence of rifampicin by broth microdilution assay; format: functional
Pseudomonas aeruginosa [11] = experiment: Antibacterial activity against Pseudomonas aeruginosa 91433 assessed as fractional inhibitory concentration index incubated for 18 hrs in presence of tigecycline by broth microdilution assay; format: functional
Pseudomonas aeruginosa [12] = experiment: Antibacterial activity against Pseudomonas aeruginosa 260-97103 infected in Galleria mellonella larvae assessed as survival of larvae at 100 mg/kg treated at 3 hrs post-infection in presence of chloramphenicol and measured after 18 hrs relative to control; format: functional
Pseudomonas aeruginosa [13] = experiment: Antibacterial activity against Pseudomonas aeruginosa 260-97103 infected in Galleria mellonella larvae assessed as survival of larvae at 100 mg/kg treated at 3 hrs post-infection in presence of chloramphenicol and measured after 24 hrs relative to control; format: functional
Pseudomonas aeruginosa [14] = experiment: Antibacterial activity against Pseudomonas aeruginosa 260-97103 infected in Galleria mellonella larvae assessed as survival of larvae treated at 3 hrs post-infection in presence of doxycycline and measured every 6 hrs for 36 hrs; format: functional, organism-based; details: dose 75-100 mg/kg
Pseudomonas aeruginosa [15] = experiment: Potentiation of doxycycline-induced antibacterial activity against Pseudomonas aeruginosa 264-101354 assessed as fold change in doxycycline MIC at 9.8 uM incubated for 18 hrs in presence of doxycycline by broth microdilution assay relative to control; format: functional
Pseudomonas aeruginosa [16] = experiment: Potentiation of doxycycline-induced antibacterial activity against Pseudomonas aeruginosa 101243 assessed as fold change in doxycycline MIC at 9.8 uM incubated for 18 hrs in presence of doxycycline by broth microdilution assay relative to control; format: functional
Pseudomonas aeruginosa [17] = experiment: Potentiation of doxycycline-induced antibacterial activity against Pseudomonas aeruginosa 91433 assessed as fold change in doxycycline MIC at 9.8 uM incubated for 18 hrs in presence of doxycycline by broth microdilution assay relative to control; format: functional
Pseudomonas aeruginosa [18] = experiment: Potentiation of chloramphenicol-induced antibacterial activity against Pseudomonas aeruginosa 100036 assessed as fold change in chloramphenicol MIC at 9.8 uM incubated for 18 hrs in presence of chloramphenicol by broth microdilution assay relative to control; format: functional
Pseudomonas aeruginosa [19] = experiment: Potentiation of chloramphenicol-induced antibacterial activity against Pseudomonas aeruginosa 259-96918 assessed as fold change in chloramphenicol MIC at 9.8 uM incubated for 18 hrs in presence of chloramphenicol by broth microdilution assay relative to control; format: functional
HepG2 [20] = experiment: Cytotoxicity against human HepG2 cells assessed as cell viability at 50 uM incubated for 48 hrs in presence of doxycycline by prestoblue assay; format: cell-based; details: hepg2, 48 h
HepG2 [21] = experiment: Cytotoxicity against human HepG2 cells assessed as cell viability at 50 uM incubated for 48 hrs in presence of chloramphenicol by prestoblue assay; format: cell-based; details: hepg2, 48 h
Escherichia coli [22] = experiment: Potentiation of doxycycline-induced antibacterial activity against Escherichia coli ATCC 25922 assessed as fold change in doxycycline MIC at 9.8 uM incubated for 18 hrs in presence of doxycycline by broth microdilution assay relative to control; format: functional
Escherichia coli [23] = experiment: Potentiation of chloramphenicol-induced antibacterial activity against Escherichia coli ATCC 25922 assessed as fold change in chloramphenicol MIC at 9.8 uM incubated for 18 hrs in presence of chloramphenicol by broth microdilution assay relative to control; format: functional
Pseudomonas aeruginosa [24] = experiment: Antibacterial activity against wild type Pseudomonas aeruginosa PAO1 assessed as reduction in bacterial growth by measuring chloramphenicol MIC at 0.25 ug/ml incubated for 18 hrs in presence of chloramphenicol by broth microdilution assay (reference value: 32 ug/ml); format: functional; details: dose 0.25 µg/ml
Pseudomonas aeruginosa [25] = experiment: Antibacterial activity against Pseudomonas aeruginosa 91433 assessed as fractional inhibitory concentration incubated for 18 hrs in presence of doxycycline by broth microdilution assay; format: functional
Pseudomonas aeruginosa [26] = experiment: Antibacterial activity against Pseudomonas aeruginosa 259-96918 assessed as reduction in bacterial growth by measuring doxycycline MIC at 8 ug/ml incubated for 18 hrs in presence of doxycycline by broth microdilution assay (reference value: 32 ug/ml); format: functional; details: dose 8 µg/ml
Pseudomonas aeruginosa [27] = experiment: Potentiation of doxycycline-induced antibacterial activity against Pseudomonas aeruginosa 264-101354 assessed as fold change in doxycycline MIC at 7.6 uM incubated for 18 hrs in presence of doxycycline by broth microdilution assay relative to control; format: functional
Pseudomonas aeruginosa [28] = experiment: Potentiation of doxycycline-induced antibacterial activity against Pseudomonas aeruginosa 101243 assessed as fold change in doxycycline MIC at 7.6 uM incubated for 18 hrs in presence of doxycycline by broth microdilution assay relative to control; format: functional
Pseudomonas aeruginosa [29] = experiment: Potentiation of chloramphenicol-induced antibacterial activity against Pseudomonas aeruginosa 114228 assessed as fold change in chloramphenicol MIC at 7.6 uM incubated for 18 hrs in presence of chloramphenicol by broth microdilution assay relative to control; format: functional
Pseudomonas aeruginosa [30] = experiment: Antibacterial activity against Pseudomonas aeruginosa 260-97103 assessed as reduction in bacterial growth by measuring doxycycline MIC at 2 ug/ml incubated for 18 hrs in presence of doxycycline by broth microdilution assay (reference value: 16 ug/ml); format: functional; details: dose 2 µg/ml
Pseudomonas aeruginosa [31] = experiment: Antibacterial activity against wild type Pseudomonas aeruginosa PAO1 assessed as reduction in bacterial growth by measuring doxycycline MIC at 8 ug/ml incubated for 18 hrs in presence of doxycycline by broth microdilution assay (reference value: 16 ug/ml); format: functional; details: dose 8 µg/ml

Compound `CO[C@H]1/C=C/O[C@@]2(C)Oc3c(C)c(O)c4c(O)c(c(/C=N/N5CCN(Cc6cn(CCCCCCO[C@@H]7[C@@H](O[C@H]8O[C@H](CO)[C@@H](O)[C@H](N)[C@H]8O)[C@H](N)C[C@H](N)[C@H]7O[C@H]7O[C@H](CN)[C@@H](O)C[C@H]7N)nn6)CC5)c(O)c4c3C2=O)NC(=O)/C(C)=C\C=C\[C@H](C)[C@H](O)[C@@H](C)[C@@H](O)[C@@H](C)[C@H](OC(C)=O)[C@@H]1C.Cl.Cl.Cl.Cl.Cl` has an MIC (Pseudomonas aeruginosa [1]) of 8 µg/mL, an MIC (Pseudomonas aeruginosa [2]) of 128 µg/mL and an MIC (Pseudomonas aeruginosa [3]) of 256 µg/mL. The FIC (Pseudomonas aeruginosa [4]) was less than 0.031, the “fractional inhibitory concentration index (FICI)” value (Pseudomonas aeruginosa [5]) was 0.31 and the “fractional inhibitory concentration index (FICI)” value (Pseudomonas aeruginosa [6]) was 0.08. The “fractional inhibitory concentration index (FICI)” value (Pseudomonas aeruginosa [7]) was less than 0.09, the “fractional inhibitory concentration index (FICI)” value (Pseudomonas aeruginosa [8]) was 0.19 and the “fractional inhibitory concentration index (FICI)” value (Pseudomonas aeruginosa [9]) was 0.08. The “fractional inhibitory concentration index (FICI)” value (Pseudomonas aeruginosa [10]) was 0.27, the “fractional inhibitory concentration index (FICI)” value (Pseudomonas aeruginosa [11]) was 1.13 and the survival at 100 mg/kg (Pseudomonas aeruginosa [12]) was 72%. The survival at 100 mg/kg (Pseudomonas aeruginosa [13]) was 45%, the Activity (Pseudomonas aeruginosa [14]) was “Dose-dependent effect” and the “fold change (FC)” value (Pseudomonas aeruginosa [15]) was 4. The “fold change (FC)” value (Pseudomonas aeruginosa [16]) was 4, the “fold change (FC)” value (Pseudomonas aeruginosa [17]) was 4 and the “fold change (FC)” value (Pseudomonas aeruginosa [18]) was 4. The “fold change (FC)” value (Pseudomonas aeruginosa [19]) was 4, the Activity (HepG2 [20]) was “Non-Toxic” and the Activity (HepG2 [21]) was “Non-Toxic”. The “fold change (FC)” value (Escherichia coli [22]) was 0 and the “fold change (FC)” value (Escherichia coli [23]) was 0.
`NC[C@H]1O[C@H](O[C@H]2[C@H](O)[C@@H](O[C@H]3O[C@H](CO)[C@@H](O)[C@H](N)[C@H]3O)[C@H](N)C[C@@H]2N)[C@H](N)C[C@@H]1O` [TOBRAMYCIN] was tested, and the MIC (Pseudomonas aeruginosa [24]) was 32 µg/mL, the FIC (Pseudomonas aeruginosa [25]) was 0.5 and the MIC (Pseudomonas aeruginosa [26]) was 32 µg/mL.
With `CO[C@H]1/C=C/O[C@@]2(C)Oc3c(C)c(O)c4c(O)c(c(/C=N/N5CCN(Cc6cn(CCCCCCCCCCCCO[C@@H]7[C@@H](O[C@H]8O[C@H](CO)[C@@H](O)[C@H](N)[C@H]8O)[C@H](N)C[C@H](N)[C@H]7O[C@H]7O[C@H](CN)[C@@H](O)C[C@H]7N)nn6)CC5)c(O)c4c3C2=O)NC(=O)/C(C)=C\C=C\[C@H](C)[C@H](O)[C@@H](C)[C@@H](O)[C@@H](C)[C@H](OC(C)=O)[C@@H]1C.O=C(O)C(F)(F)F.O=C(O)C(F)(F)F.O=C(O)C(F)(F)F.O=C(O)C(F)(F)F.O=C(O)C(F)(F)F` the “fold change (FC)” value (Pseudomonas aeruginosa [27]) was 4, the “fold change (FC)” value (Pseudomonas aeruginosa [28]) was 4 and the “fold change (FC)” value (Pseudomonas aeruginosa [29]) was 4.
`CO[C@H]1/C=C/O[C@@]2(C)Oc3c(C)c(O)c4c(O)c(c(/C=N/N5CCN(C)CC5)c(O)c4c3C2=O)NC(=O)/C(C)=C\C=C\[C@H](C)[C@H](O)[C@@H](C)[C@@H](O)[C@@H](C)[C@H](OC(C)=O)[C@@H]1C` [RIFAMPIN] showed an MIC (Pseudomonas aeruginosa [30]) of 16 µg/mL and an MIC (Pseudomonas aeruginosa [31]) of 16 µg/mL.
